Source: patent US20240150377A1, “MODULATORS OF CYSTIC FIBROSIS TRANSMEMBRANE CONDUCTANCE REGULATOR” (VERTEX PHARMACEUTICALS INCORPORATED, priority 2020, published 2024)

Target: T1, CFTR (Homo sapiens, UniProt P13569, DEL508-508)
T1 construct: endogenous in cells; host or cells: primary human bronchial epithelial cells from CF subjects (F508del/MF-HBE), differentiated at air-liquid interface
Experiment: HBE assay: Ussing chamber assay of CFTR-mediated short-circuit currents
Type: cell-based
Conditions: Table 11; for EC50: read-out: HBE EC50; for Emax: read-out: HBE Max Activity (%); for activation at 10 µM: read-out: HBE Activity at 10 μM (%)
Summary of the method: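 CFTR-mediated Isc (μA/cm²) equals the peak response to apical 20 μM forskolin minus the residual after a 20 μM each BPO/GlyH-101/CFTR inhibitor 172 cocktail, recorded in Ussing chambers at Vhold 0 mV, 37 °C, pH 7.4, with 30 μM apical amiloride. Cells were F508del/MF HBE cultures preincubated 18-24 h with corrector (concentration range or 10 μM) plus 1 μM ivacaftor in 20% human serum.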

T1 sequence (P13569 with tags, fused parts or gaps DEL508-508): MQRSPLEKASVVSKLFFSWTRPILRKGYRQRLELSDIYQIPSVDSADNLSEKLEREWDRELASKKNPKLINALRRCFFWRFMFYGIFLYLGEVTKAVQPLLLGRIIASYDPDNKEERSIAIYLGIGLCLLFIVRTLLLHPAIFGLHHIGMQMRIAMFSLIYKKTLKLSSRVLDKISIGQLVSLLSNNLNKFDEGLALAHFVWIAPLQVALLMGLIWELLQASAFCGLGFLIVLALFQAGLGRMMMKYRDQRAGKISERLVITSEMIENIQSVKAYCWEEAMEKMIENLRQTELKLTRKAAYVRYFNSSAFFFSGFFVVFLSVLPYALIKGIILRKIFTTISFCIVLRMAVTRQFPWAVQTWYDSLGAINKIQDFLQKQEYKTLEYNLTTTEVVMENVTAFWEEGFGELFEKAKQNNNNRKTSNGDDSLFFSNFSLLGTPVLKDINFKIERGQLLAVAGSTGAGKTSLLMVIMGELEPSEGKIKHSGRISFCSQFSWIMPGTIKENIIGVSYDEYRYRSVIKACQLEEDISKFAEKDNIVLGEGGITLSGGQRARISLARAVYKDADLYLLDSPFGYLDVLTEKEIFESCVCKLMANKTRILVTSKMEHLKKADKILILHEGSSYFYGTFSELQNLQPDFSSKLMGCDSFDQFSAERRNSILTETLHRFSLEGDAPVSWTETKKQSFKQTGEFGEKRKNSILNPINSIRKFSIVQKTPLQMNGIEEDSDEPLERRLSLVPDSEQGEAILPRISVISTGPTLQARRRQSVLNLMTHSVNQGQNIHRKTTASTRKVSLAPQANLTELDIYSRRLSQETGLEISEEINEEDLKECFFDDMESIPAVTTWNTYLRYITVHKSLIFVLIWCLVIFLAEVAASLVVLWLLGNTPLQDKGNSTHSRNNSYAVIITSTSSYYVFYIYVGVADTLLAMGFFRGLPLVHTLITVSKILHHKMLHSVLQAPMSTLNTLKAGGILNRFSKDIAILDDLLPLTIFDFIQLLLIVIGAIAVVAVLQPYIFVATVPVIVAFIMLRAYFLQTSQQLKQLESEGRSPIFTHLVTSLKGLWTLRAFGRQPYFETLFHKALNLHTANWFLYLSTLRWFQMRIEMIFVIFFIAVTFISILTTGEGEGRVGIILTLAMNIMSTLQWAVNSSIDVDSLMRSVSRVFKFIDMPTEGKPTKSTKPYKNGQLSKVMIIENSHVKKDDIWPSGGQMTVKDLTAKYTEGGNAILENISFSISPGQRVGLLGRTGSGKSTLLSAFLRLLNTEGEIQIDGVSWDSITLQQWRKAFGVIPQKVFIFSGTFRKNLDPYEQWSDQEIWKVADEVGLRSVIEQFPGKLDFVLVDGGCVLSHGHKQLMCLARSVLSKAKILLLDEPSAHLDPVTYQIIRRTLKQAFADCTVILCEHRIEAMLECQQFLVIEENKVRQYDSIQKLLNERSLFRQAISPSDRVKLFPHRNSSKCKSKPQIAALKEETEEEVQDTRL

SMILES	EC50 [µM]	Emax [%]	activation at 10 µM [%]
Cc1cccc(C)c1-c1cc2nc(n1)NS(=O)(=O)c1cccc(c1)C(=O)N(CC1CN(CC(C)(C)C)CCO1)[C@H](CC(C)(C)C)CO2 (stereo partly drawn) [Compound 712]	< 1	> 60	–
Cc1cccc(C)c1-c1cc2nc(n1)NS(=O)(=O)c1cccc(c1)C(=O)N(CC1CN(C(=O)C(C)(C)C)CCO1)[C@H](CC(C)(C)C)CO2 (stereo partly drawn) [Compound 714]	< 1	> 60	–
CCN(C)c1cccc(CN2C(=O)c3cccc(c3)S(=O)(=O)Nc3nc(cc(-c4c(C)cccc4C)n3)OC[C@H]2CC(C)(C)C)n1 [Compound 715]	1 to 3	> 60	–
Cc1cccc(C)c1-c1cc2nc(n1)NS(=O)(=O)c1cccc(c1)C(=O)N(Cc1ncc(N3C[C@H](C)C[C@@H](C)C3)cn1)[C@H](CC(C)(C)C)CO2 [Compound 716]	3 to 30	> 60	–
Cc1cccc(C)c1-c1cc2nc(n1)NS(=O)(=O)c1cccc(c1)C(=O)N(Cc1ncc(N3CC4CC4C3)cn1)[C@H](CC(C)(C)C)CO2 (stereo partly drawn) [Compound 717]	1 to 3	> 60	–
COC1CCN(c2cnc(CN3C(=O)c4cccc(c4)S(=O)(=O)Nc4nc(cc(-c5c(C)cccc5C)n4)OC[C@H]3CC(C)(C)C)nc2)CC1 [Compound 718]	< 1	> 60	–
Cc1cccc(C)c1-c1cc2nc(n1)NS(=O)(=O)c1cccc(c1)C(=O)N(Cc1cccc(N3CCC(C)(O)CC3)n1)[C@H](CC(C)(C)C)CO2 [Compound 721]	< 1	> 60	–
Cc1cccc(C)c1-c1cc2nc(n1)NS(=O)(=O)c1cccc(c1)C(=O)N(Cc1ncccc1NCC(C)(C)C)[C@H](CC(C)(C)C)CO2 [Compound 724]	< 1	> 60	–
CCc1cccc(CN2C(=O)c3cccc(c3)S(=O)(=O)Nc3nc(cc(-c4c(C)cccc4C)n3)OC[C@H]2CC(C)(C)C)n1 [Compound 730]	< 1	> 60	–
Cc1cccc(C)c1-c1cc2nc(n1)NS(=O)(=O)c1cccc(c1)C(=O)N(Cc1cccc(C3=CCC(C)(C)CC3)n1)[C@H](CC(C)(C)C)CO2 [Compound 734]	–	–	> 60
Cc1cccc(C)c1-c1cc2nc(n1)NS(=O)(=O)c1cccc(c1)C(=O)N(Cc1cccc(NC(C)C)n1)[C@H](CC(C)(C)C)CO2 [Compound 736]	< 1	> 60	–
Cc1cccc(C)c1-c1cc2nc(n1)NS(=O)(=O)c1cccc(c1)C(=O)N(Cc1cccc(N(C)C(C)C)n1)[C@H](CC(C)(C)C)CO2 [Compound 737]	< 1	> 60	–
CCNc1cccc(CN2C(=O)c3cccc(c3)S(=O)(=O)Nc3nc(cc(-c4c(C)cccc4C)n3)OC[C@H]2CC(C)(C)C)n1 [Compound 738]	< 1	> 60	–
CCOc1cccnc1CN1C(=O)c2cccc(c2)S(=O)(=O)Nc2nc(cc(-c3c(C)cccc3C)n2)OC[C@H]1CC(C)(C)C [Compound 742]	< 1	> 60	–
Cc1cccc(C)c1-c1cc2nc(n1)NS(=O)(=O)c1cccc(c1)C(=O)N(Cc1cc3ccccn3n1)[C@H](CC(C)(C)C)CO2 [Compound 743]	–	–	< 30
Cc1cccc(C)c1-c1cc2nc(n1)NS(=O)(=O)c1cccc(c1)C(=O)N(Cc1ccc(OC(C)C)cn1)[C@H](CC(C)(C)C)CO2 [Compound 744]	< 1	> 60	–
CCOc1ccc(CN2C(=O)c3cccc(c3)S(=O)(=O)Nc3nc(cc(-c4c(C)cccc4C)n3)OC[C@H]2CC(C)(C)C)nc1 [Compound 745]	< 1	> 60	–
Cc1cccc(C)c1-c1cc2nc(n1)NS(=O)(=O)c1cccc(c1)C(=O)N(Cc1ccc(OCCC(C)(C)C)cn1)[C@H](CC(C)(C)C)CO2 [Compound 746]	–	–	> 60
Cc1cccc(C)c1-c1cc2nc(n1)NS(=O)(=O)c1cccc(c1)C(=O)N(Cc1ncc(N3CCCCC3)cn1)[C@H](CC(C)(C)C)CO2 [Compound 748]	< 1	> 60	> 60

The remaining lines, values ahead:

EC50 [µM]	Emax [%]	activation at 10 µM [%]	SMILES
1 to 3	> 60	–	CCN(CC)c1cccc(CN2C(=O)c3cccc(c3)S(=O)(=O)Nc3nc(cc(-c4c(C)cccc4C)n3)OC[C@H]2CC(C)(C)C)n1 [Compound 711]
< 1	> 60	–	Cc1cccc(C)c1-c1cc2nc(n1)NS(=O)(=O)c1cccc(c1)C(=O)N(Cc1ncc(N3CCC(C)CC3)cn1)[C@H](CC(C)(C)C)CO2 [Compound 719]
< 1	> 60	–	CCOc1cnc(CN2C(=O)c3cccc(c3)S(=O)(=O)Nc3nc(cc(-c4c(C)cccc4C)n3)OC[C@H]2CC(C)(C)C)nc1 [Compound 720]
< 1	> 60	–	COC1CCN(c2cccc(CN3C(=O)c4cccc(c4)S(=O)(=O)Nc4nc(cc(-c5c(C)cccc5C)n4)OC[C@H]3CC(C)(C)C)n2)CC1 [Compound 722]
< 1	> 60	–	Cc1cccc(C)c1-c1cc2nc(n1)NS(=O)(=O)c1cccc(c1)C(=O)N(CC1CN(C(=O)OC(C)(C)C)CCO1)[C@H](CC(C)(C)C)CO2 (stereo partly drawn) [Compound 723]
< 1	> 60	–	Cc1cccc(C)c1-c1cc2nc(n1)NS(=O)(=O)c1cccc(c1)C(=O)N(Cc1ncccc1N(C)CC(C)(C)C)[C@H](CC(C)(C)C)CO2 [Compound 725]
< 1	> 60	–	Cc1cccc(C)c1-c1cc2nc(n1)NS(=O)(=O)c1cccc(c1)C(=O)N(Cc1cccc(C3CCC(C)(C)CC3)n1)[C@H](CC(C)(C)C)CO2 [Compound 727]
< 1	> 60	–	Cc1cccc(C)c1-c1cc2nc(n1)NS(=O)(=O)c1cccc(c1)C(=O)N(Cc1cccc(C3CCOCC3)n1)[C@H](CC(C)(C)C)CO2 [Compound 728]
< 1	> 60	–	Cc1cccc(C)c1-c1cc2nc(n1)NS(=O)(=O)c1cccc(c1)C(=O)N(Cc1cccc(C(C)C)n1)[C@H](CC(C)(C)C)CO2 [Compound 729]
< 1	> 60	–	Cc1cccc(C)c1-c1cc2nc(n1)NS(=O)(=O)c1cccc(c1)C(=O)N(Cc1cccc(C(C)(C)C)n1)[C@H](CC(C)(C)C)CO2 [Compound 731]
< 1	> 60	–	Cc1cccc(C)c1-c1cc2nc(n1)NS(=O)(=O)c1cccc(c1)C(=O)N(Cc1cccc(-n3cc(C(C)(C)C)cn3)n1)[C@H](CC(C)(C)C)CO2 [Compound 732]
< 1	> 60	> 60	Cc1cccc(C)c1-c1cc2nc(n1)NS(=O)(=O)c1cccc(c1)C(=O)N(Cc1cccc(C3=CCOCC3)n1)[C@H](CC(C)(C)C)CO2 [Compound 733]
< 1	> 60	> 60	C=C(C)c1cccc(CN2C(=O)c3cccc(c3)S(=O)(=O)Nc3nc(cc(-c4c(C)cccc4C)n3)OC[C@H]2CC(C)(C)C)n1 [Compound 735]
< 1	> 60	–	Cc1cccc(C)c1-c1cc2nc(n1)NS(=O)(=O)c1cccc(c1)C(=O)N(Cc1cccc(NC(C)(C)C)n1)[C@H](CC(C)(C)C)CO2 [Compound 739]
< 1	> 60	–	Cc1cccc(C)c1-c1cc2nc(n1)NS(=O)(=O)c1cccc(c1)C(=O)N(Cc1ncccc1OC(C)C)[C@H](CC(C)(C)C)CO2 [Compound 741]
–	–	> 60	Cc1cccc(C)c1-c1cc2nc(n1)NS(=O)(=O)c1cccc(c1)C(=O)N(Cc1ccc(OCC(C)C)cn1)[C@H](CC(C)(C)C)CO2 [Compound 747]
